# Measured values from ChEMBL document CHEMBL4602604, “A Selective and Brain Penetrant p38αMAPK Inhibitor Candidate for Neurologic and Neuropsychiatric Disorders That Attenuates Neuroinflammation and Cognitive Dysfunction” (J Med Chem, 2019).
# Calls of active or inactive are those of the source. No cut-off for these calls is given here.
# What was measured:
# [1] = human, microsomes, 1 µM
# [2] = target: 5-hydroxytryptamine receptor 3A (Homo sapiens) (UniProt P46098); experiment: Inhibition of human 5HT3 receptor at 10 uM
# [3] = target: Beta-1 adrenergic receptor (Homo sapiens) (UniProt P08588); experiment: Inhibition of human adrenergic beta1 receptor at 10 uM
# [4] = target: 5-hydroxytryptamine receptor 1B (Homo sapiens) (UniProt P28222); experiment: Inhibition of human 5HT1B receptor at 10 uM
# [5] = target: Alpha-1A adrenergic receptor (Homo sapiens) (UniProt P35348); experiment: Inhibition of human adrenergic alpha1a receptor at 10 uM
# Sequence of Alpha-1A adrenergic receptor (Homo sapiens) (P35348 whole entry): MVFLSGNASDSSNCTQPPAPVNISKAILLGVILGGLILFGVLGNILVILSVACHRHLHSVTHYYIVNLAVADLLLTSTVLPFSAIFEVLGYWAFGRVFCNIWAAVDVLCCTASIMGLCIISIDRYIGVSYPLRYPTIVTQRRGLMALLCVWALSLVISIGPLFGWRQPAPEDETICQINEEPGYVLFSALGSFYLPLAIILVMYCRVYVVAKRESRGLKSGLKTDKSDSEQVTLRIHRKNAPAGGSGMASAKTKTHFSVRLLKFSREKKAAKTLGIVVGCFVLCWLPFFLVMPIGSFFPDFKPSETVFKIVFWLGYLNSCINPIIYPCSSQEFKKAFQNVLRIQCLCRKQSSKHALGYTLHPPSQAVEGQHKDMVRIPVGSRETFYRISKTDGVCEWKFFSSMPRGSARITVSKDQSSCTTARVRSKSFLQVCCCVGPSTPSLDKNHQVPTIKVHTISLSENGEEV
# [6] = target: Delta-type opioid receptor (Homo sapiens) (UniProt P41143); experiment: Inhibition of human OP1 receptor at 10 uM
# [7] = target: Sodium-dependent serotonin transporter (Homo sapiens) (UniProt P31645); experiment: Inhibition of human serotonin transporter at 10 uM
# [8] = target: Prostaglandin G/H synthase 2 (Homo sapiens, UniProt P35354); experiment: Inhibition of human COX2 at 10 uM
# [9] = target: 5-hydroxytryptamine receptor 2B (Homo sapiens) (UniProt P41595); experiment: Inhibition of human 5HT2B receptor at 10 uM
# [10] = target: Cannabinoid receptor 2 (Homo sapiens) (UniProt P34972); experiment: Inhibition of human CB2 receptor at 10 uM
# [11] = target: Cannabinoid receptor 1 (Homo sapiens) (UniProt P21554); experiment: Inhibition of human CB1 receptor at 10 uM
# [12] = target: Cytochrome P450 2B6 (Homo sapiens, UniProt P20813); experiment: Inhibition of human recombinant CYP2B6 at 10 uM incubated for 10 to 30 mins in presence of CYP-specific probe EFC substrate by LC-MS/MS analysis; type: ADME; settings: recombinant enzyme
# [13] = target: Mu-type opioid receptor (Homo sapiens) (UniProt P35372); experiment: Inhibition of human OP3 receptor at 10 uM
# [14] = test system: Mus musculus; experiment: Suppression of cognitive dysfunction in transgenic rTg4510 mouse model assessed as prevention of hippocampal tissue loss at […], po dosed every other day for 45 days; type: functional, organism-based
# [15] = in vitro; settings: Beagle, dog, hepatocytes
# Description: Half life in Beagle dog hepatocytes at 1 uM by LC-MS/MS analysis
# [16] = target: 5-hydroxytryptamine receptor 1A (Homo sapiens) (UniProt P08908); experiment: Inhibition of human 5HT1A receptor at 10 uM
# Sequence of 5-hydroxytryptamine receptor 1A (Homo sapiens) (P08908 whole entry): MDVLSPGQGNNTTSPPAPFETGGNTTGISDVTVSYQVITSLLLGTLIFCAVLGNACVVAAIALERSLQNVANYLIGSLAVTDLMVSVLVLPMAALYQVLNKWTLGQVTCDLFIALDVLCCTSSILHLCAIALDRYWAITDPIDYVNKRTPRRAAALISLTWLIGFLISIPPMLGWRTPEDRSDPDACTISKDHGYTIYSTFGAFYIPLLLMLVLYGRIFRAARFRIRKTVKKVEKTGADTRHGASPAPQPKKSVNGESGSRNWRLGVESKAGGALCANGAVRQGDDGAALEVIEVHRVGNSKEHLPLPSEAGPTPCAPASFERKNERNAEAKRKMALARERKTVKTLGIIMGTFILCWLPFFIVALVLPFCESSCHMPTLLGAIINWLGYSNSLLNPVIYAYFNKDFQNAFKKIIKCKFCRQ
# [17] = target: Glutamate NMDA receptor (Rattus norvegicus) (UniProt P35439+Q00959+Q00960+Q00961+Q62645+Q8VHN2+Q9R1M7); experiment: Inhibition of rat NMDA receptor at 10 uM; type: protein-complex assay
# [18] = target: Cytochrome P450 2C8 (Homo sapiens, UniProt P10632); experiment: Inhibition of human recombinant CYP2C8 at 10 uM incubated for 10 to 30 mins in presence of CYP-specific probe DBF substrate by LC-MS/MS analysis; type: ADME; settings: recombinant enzyme
# [19] = target: Muscarinic acetylcholine receptor M3 (Homo sapiens) (UniProt P20309); experiment: Inhibition of human muscarinic M3 receptor at 10 uM
# [20] = target: GABA-A receptor; anion channel (Rattus norvegicus) (UniProt O09028+P15431+P18506+P18508+P19969+P20236+P23574+P23576+P28471+P28473+P30191+P62813+P63079+P63138+Q91ZM7+Q9ES14); experiment: Inhibition of rat GABAA receptor at 10 uM; type: protein-complex assay
# [21] = species: Rattus norvegicus; experiment: Inhibition of rat potassium channel at 10 uM
# [22] = target: Acetylcholinesterase (Homo sapiens, UniProt P22303); experiment: Inhibition of human acetyl cholinesterase at 10 uM
# [23] = test system: Mus musculus; experiment: Suppression of human recombinant tau-induced memory impairment in C57Bl/6 mouse model of oligomeric tau infusion model assessed as attenuation of deficits in spatial and associative memory performance at 5 mg/kg, ip dosed 20 mins prior to start of testing by radial arm water maze test; type: functional, organism-based
# [24] = target: 3',5'-cyclic-AMP phosphodiesterase 4D (Homo sapiens) (UniProt Q08499); experiment: Inhibition of human PDE4D2 at 10 uM
# [25] = target: Vasopressin V1a receptor (Homo sapiens) (UniProt P37288); experiment: Inhibition of human V1A receptor at 10 uM
# Sequence of Vasopressin V1a receptor (Homo sapiens) (P37288 whole entry, looked up): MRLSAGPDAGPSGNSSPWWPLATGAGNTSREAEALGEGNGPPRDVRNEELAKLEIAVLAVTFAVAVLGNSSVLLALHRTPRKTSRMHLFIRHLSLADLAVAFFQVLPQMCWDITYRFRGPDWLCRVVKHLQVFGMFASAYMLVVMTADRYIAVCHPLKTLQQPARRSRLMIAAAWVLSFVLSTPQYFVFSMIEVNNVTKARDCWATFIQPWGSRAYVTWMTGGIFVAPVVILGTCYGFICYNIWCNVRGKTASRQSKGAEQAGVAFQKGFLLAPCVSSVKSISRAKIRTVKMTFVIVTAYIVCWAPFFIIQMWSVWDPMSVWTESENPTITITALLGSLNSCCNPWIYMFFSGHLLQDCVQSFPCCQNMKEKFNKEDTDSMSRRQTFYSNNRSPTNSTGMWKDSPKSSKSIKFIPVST
# [26] = target: Cytochrome P450 2C19 (Homo sapiens, UniProt P33261); experiment: Inhibition of human recombinant CYP2C19 at 10 uM incubated for 10 to 30 mins in presence of CYP-specific probe CEC substrate by LC-MS/MS analysis; type: ADME; settings: recombinant enzyme
# [27] = target: Amine oxidase [flavin-containing] A (Rattus norvegicus, UniProt P21396); experiment: Inhibition of rat MAOA at 10 uM
# [28] = target: Glucocorticoid receptor (Homo sapiens) (UniProt P04150); experiment: Inhibition of human glucocorticoid receptor at 10 uM
# Sequence of Glucocorticoid receptor (Homo sapiens) (P04150 whole entry): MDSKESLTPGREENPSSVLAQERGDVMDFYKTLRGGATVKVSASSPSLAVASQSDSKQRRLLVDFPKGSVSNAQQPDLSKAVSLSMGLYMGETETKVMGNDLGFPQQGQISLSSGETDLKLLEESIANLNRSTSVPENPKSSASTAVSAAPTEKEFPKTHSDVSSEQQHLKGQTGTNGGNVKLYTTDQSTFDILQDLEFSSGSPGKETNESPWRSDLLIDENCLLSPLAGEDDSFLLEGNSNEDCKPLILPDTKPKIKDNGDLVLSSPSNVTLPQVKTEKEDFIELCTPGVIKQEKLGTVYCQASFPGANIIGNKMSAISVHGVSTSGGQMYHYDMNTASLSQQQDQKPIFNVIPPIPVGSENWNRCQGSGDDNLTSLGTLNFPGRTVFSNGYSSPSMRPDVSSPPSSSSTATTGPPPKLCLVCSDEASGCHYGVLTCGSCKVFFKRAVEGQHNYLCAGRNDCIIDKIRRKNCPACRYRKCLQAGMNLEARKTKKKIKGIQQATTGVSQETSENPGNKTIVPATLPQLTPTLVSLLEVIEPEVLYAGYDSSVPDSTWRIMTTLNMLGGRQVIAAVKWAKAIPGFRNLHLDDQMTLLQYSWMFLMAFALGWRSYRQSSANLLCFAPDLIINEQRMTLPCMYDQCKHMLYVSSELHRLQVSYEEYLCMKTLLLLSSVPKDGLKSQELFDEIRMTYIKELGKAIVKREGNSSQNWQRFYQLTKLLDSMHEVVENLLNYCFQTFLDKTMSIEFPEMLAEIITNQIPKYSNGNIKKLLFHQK
# [29] = target: Neuronal acetylcholine receptor; alpha4/beta2 (Homo sapiens) (UniProt P17787+P43681); experiment: Inhibition of human alpha4beta2 nAChR receptor at 10 uM; type: protein-complex assay
# [30] = target: Amine oxidase [flavin-containing] B (Homo sapiens, UniProt P27338); experiment: Inhibition of human MAOB at 10 uM
# [31] = in vitro; settings: human, hepatocytes
# Description: Half life in human hepatocytes at 1 uM by LC-MS/MS analysis
# [32] = target: 5-hydroxytryptamine receptor 2A (Homo sapiens) (UniProt P28223); experiment: Inhibition of human 5HT2A receptor at 10 uM
# Sequence of 5-hydroxytryptamine receptor 2A (Homo sapiens) (P28223 whole entry): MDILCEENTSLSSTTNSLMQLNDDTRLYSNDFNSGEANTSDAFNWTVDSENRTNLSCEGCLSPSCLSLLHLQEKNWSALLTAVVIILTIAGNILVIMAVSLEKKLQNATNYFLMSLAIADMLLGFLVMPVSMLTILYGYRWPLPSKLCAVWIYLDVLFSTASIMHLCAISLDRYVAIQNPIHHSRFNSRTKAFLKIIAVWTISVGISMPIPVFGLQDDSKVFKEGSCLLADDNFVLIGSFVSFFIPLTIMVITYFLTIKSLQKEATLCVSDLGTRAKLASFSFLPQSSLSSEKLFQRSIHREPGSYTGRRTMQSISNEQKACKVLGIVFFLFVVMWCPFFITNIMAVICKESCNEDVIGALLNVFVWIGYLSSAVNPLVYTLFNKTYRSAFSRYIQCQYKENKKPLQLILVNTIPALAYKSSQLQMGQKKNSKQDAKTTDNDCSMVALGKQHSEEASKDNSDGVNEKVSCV
# [33] = target: Cytochrome P450 2D6 (Homo sapiens, UniProt P10635); experiment: Inhibition of human recombinant CYP2D6 at 10 uM incubated for 10 to 30 mins in presence of CYP-specific probe MFC substrate by LC-MS/MS analysis; type: ADME; settings: recombinant enzyme
# Sequence of Cytochrome P450 2D6 (P10635 whole entry): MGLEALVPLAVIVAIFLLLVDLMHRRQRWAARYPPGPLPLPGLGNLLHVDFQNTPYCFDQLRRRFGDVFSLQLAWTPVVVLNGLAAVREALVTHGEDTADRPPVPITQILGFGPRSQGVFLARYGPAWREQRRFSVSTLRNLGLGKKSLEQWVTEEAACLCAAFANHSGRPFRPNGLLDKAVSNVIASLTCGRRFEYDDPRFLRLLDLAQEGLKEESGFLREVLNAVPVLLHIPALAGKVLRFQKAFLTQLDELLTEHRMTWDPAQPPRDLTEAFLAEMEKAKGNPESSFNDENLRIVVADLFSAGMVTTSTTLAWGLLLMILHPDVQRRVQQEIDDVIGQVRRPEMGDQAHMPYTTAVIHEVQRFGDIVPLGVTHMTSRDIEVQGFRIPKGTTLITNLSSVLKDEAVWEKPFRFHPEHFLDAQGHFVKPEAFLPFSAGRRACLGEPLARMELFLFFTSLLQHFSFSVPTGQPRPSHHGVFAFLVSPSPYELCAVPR
# [34] = species: Rattus norvegicus; experiment: Inhibition of rat sodium sodium channel at 10 uM
# [35] = Permeability in human Caco2 cells at 5 uM by LC-MS/MS analysis; type: ADME, cell-based; settings: caco-2, 5 µM
# [36] = target: D(2) dopamine receptor (Homo sapiens) (UniProt P14416); experiment: Inhibition of human D2S receptor at 10 uM
# [37] = target: Histamine H2 receptor (Homo sapiens) (UniProt P25021); experiment: Inhibition of human histamine H2 receptor at 10 uM
# [38] = target: Muscarinic acetylcholine receptor M1 (Homo sapiens) (UniProt P11229); experiment: Inhibition of human muscarinic M1 receptor at 10 uM
# [39] = target: Beta-2 adrenergic receptor (Homo sapiens) (UniProt P07550); experiment: Inhibition of human adrenergic beta2 receptor at 10 uM
# [40] = target: Cytochrome P450 2C9 (Homo sapiens, UniProt P11712); experiment: Inhibition of human recombinant CYP2C9 at 10 uM incubated for 10 to 30 mins in presence of CYP-specific probe MFC substrate by LC-MS/MS analysis; type: ADME; settings: recombinant enzyme
# [41] = Toxicity in APP/PS1 knock-in mouse assessed as induction of abnormalities in liver at 250 mg/kg; type: organism-based; settings: in vivo
# [42] = test system: Mus musculus; experiment: Suppression of human recombinant tau-induced memory impairment in C57Bl/6 mouse model of oligomeric tau infusion model assessed as attenuation of deficits in spatial and associative memory performance at 5 mg/kg, ip dosed 20 mins prior to start of testing by contextual fear conditioning assay; type: functional, organism-based
# [43] = target: Kappa-type opioid receptor (Homo sapiens) (UniProt P41145); experiment: Inhibition of human OP2 receptor at 10 uM
# Sequence of Kappa-type opioid receptor (Homo sapiens) (P41145 whole entry): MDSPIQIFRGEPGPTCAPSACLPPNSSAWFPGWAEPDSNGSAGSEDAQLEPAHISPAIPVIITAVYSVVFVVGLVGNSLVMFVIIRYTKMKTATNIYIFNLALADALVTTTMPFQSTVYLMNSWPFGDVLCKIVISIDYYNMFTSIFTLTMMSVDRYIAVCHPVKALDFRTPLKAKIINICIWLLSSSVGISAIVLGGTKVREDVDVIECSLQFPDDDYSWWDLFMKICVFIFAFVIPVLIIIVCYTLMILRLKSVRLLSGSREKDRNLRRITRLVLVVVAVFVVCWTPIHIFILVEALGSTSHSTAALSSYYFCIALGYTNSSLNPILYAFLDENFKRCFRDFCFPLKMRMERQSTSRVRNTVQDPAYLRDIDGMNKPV
# [44] = target: Adenosine receptor A2a (Homo sapiens) (UniProt P29274); experiment: Inhibition of human adenosine A2A receptor at 10 uM
# Sequence of Adenosine receptor A2a (Homo sapiens) (P29274 whole entry, looked up): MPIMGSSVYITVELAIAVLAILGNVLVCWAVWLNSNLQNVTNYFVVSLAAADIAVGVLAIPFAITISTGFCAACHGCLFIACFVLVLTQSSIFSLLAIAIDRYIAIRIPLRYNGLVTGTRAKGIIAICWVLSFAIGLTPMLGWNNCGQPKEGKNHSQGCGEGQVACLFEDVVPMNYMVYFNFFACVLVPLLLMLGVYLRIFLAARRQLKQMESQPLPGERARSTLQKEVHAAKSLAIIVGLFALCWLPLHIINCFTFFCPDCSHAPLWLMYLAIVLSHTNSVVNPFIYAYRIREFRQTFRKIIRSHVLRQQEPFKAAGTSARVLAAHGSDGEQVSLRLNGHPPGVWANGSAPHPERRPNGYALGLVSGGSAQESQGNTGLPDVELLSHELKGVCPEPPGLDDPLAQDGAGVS
# [45] = Permeability in MDCK cells expressing BCRP at 5 uM by LC-MS/MS analysis; type: ADME, cell-based, Canis lupus familiaris; settings: dog
# [46] = target: Sodium-dependent dopamine transporter (Homo sapiens) (UniProt Q01959); experiment: Inhibition of human dopamine transporter at 10 uM
# [47] = target: Alpha-2A adrenergic receptor (Homo sapiens) (UniProt P08913); experiment: Inhibition of human adrenergic alpha2a receptor at 10 uM
# [48] = target: Voltage-gated L-type calcium channel (Rattus norvegicus, UniProt P22002+Q02485+P27732); experiment: Inhibition of rat L-type calcium channel at 10 uM; type: protein assay
# [49] = target: D(1A) dopamine receptor (Homo sapiens) (UniProt P21728); experiment: Inhibition of human DRD1 receptor at 10 uM
# [50] = target: Prostaglandin G/H synthase 1 (Homo sapiens, UniProt P23219); experiment: Inhibition of human COX1 at 10 uM
# [51] = test system: Mus musculus; experiment: Effect on memory function in C57Bl/6 mouse at 5 mg/kg, ip dosed 20 mins prior to start of testing by radial arm water maze test; type: ADME, organism-based; settings: in vivo
# [52] = target: T1, Cytochrome P450 3A4 (Homo sapiens, UniProt P08684); experiment: Inhibition of human recombinant CYP3A4 at 10 uM incubated for 10 to 30 mins in presence of CYP-specific probe BFC substrate by LC-MS/MS analysis; type: ADME; settings: recombinant enzyme
# T1 sequence (P08684 whole entry): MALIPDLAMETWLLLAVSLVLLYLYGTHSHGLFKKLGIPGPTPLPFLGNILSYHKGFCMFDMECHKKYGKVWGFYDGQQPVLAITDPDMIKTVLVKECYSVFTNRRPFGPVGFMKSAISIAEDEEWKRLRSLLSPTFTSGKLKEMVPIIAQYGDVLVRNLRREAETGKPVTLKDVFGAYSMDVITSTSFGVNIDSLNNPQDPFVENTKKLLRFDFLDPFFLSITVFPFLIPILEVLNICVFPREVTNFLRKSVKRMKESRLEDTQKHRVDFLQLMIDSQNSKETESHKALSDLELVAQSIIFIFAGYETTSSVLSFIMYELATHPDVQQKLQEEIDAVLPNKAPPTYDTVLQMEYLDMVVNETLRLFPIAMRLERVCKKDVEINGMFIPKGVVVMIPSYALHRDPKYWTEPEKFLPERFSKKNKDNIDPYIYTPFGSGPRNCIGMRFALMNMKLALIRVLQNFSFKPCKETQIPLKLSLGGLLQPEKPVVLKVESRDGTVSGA
# [53] = target: Androgen receptor (Homo sapiens) (UniProt P10275); experiment: Inhibition of human androgen receptor at 10 uM
# [54] = test system: Mus musculus; experiment: Suppression of cognitive dysfunction in transgenic rTg4510 mouse model assessed as rescue of freezing deficit at […], po dosed every other day for 45 days by contextual fear conditioning assay; type: functional, organism-based
# [55] = target: T1, Cytochrome P450 3A4; experiment: Inhibition of human recombinant CYP3A4 at 10 uM incubated for 10 to 30 mins in presence of CYP-specific probe BzRes substrate by LC-MS/MS analysis; type: ADME; settings: recombinant enzyme
# [56] = target: Cholecystokinin receptor type A (Homo sapiens) (UniProt P32238); experiment: Inhibition of human CCK1 receptor at 10 uM
# Sequence of Cholecystokinin receptor type A (Homo sapiens) (P32238 whole entry): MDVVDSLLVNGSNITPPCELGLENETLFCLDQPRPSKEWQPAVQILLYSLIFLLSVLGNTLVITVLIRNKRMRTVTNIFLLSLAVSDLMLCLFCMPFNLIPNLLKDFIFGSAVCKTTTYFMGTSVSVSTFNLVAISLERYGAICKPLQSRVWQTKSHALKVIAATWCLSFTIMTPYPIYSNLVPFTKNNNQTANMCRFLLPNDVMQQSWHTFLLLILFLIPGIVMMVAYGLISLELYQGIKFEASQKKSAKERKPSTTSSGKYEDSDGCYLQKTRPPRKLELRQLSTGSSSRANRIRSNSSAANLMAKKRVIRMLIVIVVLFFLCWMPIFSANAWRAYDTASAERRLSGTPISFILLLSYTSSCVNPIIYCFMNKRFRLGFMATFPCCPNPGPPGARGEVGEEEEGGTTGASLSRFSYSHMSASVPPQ
# [57] = target: Histamine H1 receptor (Homo sapiens) (UniProt P35367); experiment: Inhibition of human histamine H1 receptor at 10 uM
# [58] = target: Cytochrome P450 1A2 (Homo sapiens, UniProt P05177); experiment: Inhibition of human recombinant CYP1A2 at 10 uM incubated for 10 to 30 mins in presence of CYP-specific probe CEC substrate by LC-MS/MS analysis; type: ADME; settings: recombinant enzyme
# [59] = target: cGMP-inhibited 3',5'-cyclic phosphodiesterase 3A (Homo sapiens, UniProt Q14432); experiment: Inhibition of human PDE3A at 10 uM
# [60] = Toxicity in wild type mouse assessed as induction of abnormalities in liver at 250 mg/kg; type: organism-based; settings: in vivo
# [61] = test system: Mus musculus; experiment: Suppression of cognitive dysfunction in transgenic rTg4510 mouse model assessed as reduction in errors at […], po dosed every other day for 45 days by radial arm water maze test; type: functional, organism-based
# [62] = in vivo; settings: mouse, po
# Description: Toxicity in orally dosed wild type mouse dosed daily for 14 days
# [63] = target: Sodium-dependent noradrenaline transporter (Homo sapiens) (UniProt P23975); experiment: Inhibition of human norepinephrine transporter at 10 uM
# [64] = test system: Mus musculus; experiment: Suppression of cognitive dysfunction in transgenic rTg4510 mouse model assessed as prevention of cortical tissue loss at […], po dosed every other day for 45 days; type: functional, organism-based
smiles,measurement,setting,value
c1ccc2cc(-c3nnc(N4CCCCC4)cc3-c3ccncc3)ccc2c1,t1/2,[1],0.1 h
c1ccc2cc(-c3nnc(N4CCNCC4)cc3-c3ccncc3)ccc2c1,t1/2,[1],> 1 h
CN1CCN(c2cc(-c3ccncc3)c(-c3ccc4ccccc4c3)nn2)CC1 [MW-150],inhibition,[2],inactive
same,inhibition,[3],inactive
same,inhibition,[4],inactive
same,inhibition,[5],inactive
same,inhibition,[6],inactive
same,inhibition,[7],inactive
same,inhibition (INH),[8],Not Active
same,inhibition,[9],inactive
same,inhibition,[10],inactive
same,inhibition,[11],inactive
same,inhibition (INH),[12],Not Active
same,inhibition,[13],inactive
same,Activity,[14],inactive
same,half-life at 1 µM,[15],> 2 h
same,inhibition,[16],inactive
same,inhibition,[17],inactive
same,inhibition (INH),[18],Not Active
same,inhibition,[19],inactive
same,inhibition,[20],inactive
same,inhibition,[21],inactive
same,inhibition (INH),[22],Not Active
same,Activity,[23],Active
same,inhibition,[24],inactive
same,inhibition,[25],inactive
same,inhibition (INH),[26],Not Active
same,inhibition (INH),[27],Not Active
same,inhibition,[28],inactive
same,inhibition,[29],inactive
same,inhibition (INH),[30],Not Active
same,half-life at 1 µM,[31],> 2 h
same,inhibition,[32],inactive
same,inhibition (INH),[33],Not Active
same,inhibition,[34],inactive
same,permeability,[35],Permeable
same,inhibition,[36],inactive
same,inhibition,[37],inactive
same,inhibition,[38],inactive
same,inhibition,[39],inactive
same,inhibition (INH),[40],Not Active
same,Activity,[41],Non-Toxic
same,Activity,[42],Active
same,inhibition,[43],inactive
same,inhibition,[44],inactive
same,permeability,[45],Permeable
same,inhibition,[46],inactive
same,inhibition,[47],inactive
same,inhibition (INH),[48],Not Active
same,inhibition,[49],inactive
same,inhibition (INH),[50],Not Active
same,Activity,[51],Non-Toxic
same,inhibition (INH),[52],Not Active
same,inhibition,[53],inactive
same,Activity,[54],Active
same,inhibition (INH),[55],Not Active
same,inhibition,[56],inactive
same,inhibition,[57],inactive
same,inhibition (INH),[58],Not Active
same,inhibition (INH),[59],Not Active
same,Activity,[60],Non-Toxic
same,Activity,[61],Active
same,NOAEL at 336 h,[62],125 mg/kg
same,inhibition,[63],inactive
same,Activity,[64],Active
